According to US8895561B2, “Compounds and methods for treating candidiasis and aspergillus infections” (Cellceutix Corporation, priority 2012, dated 2014):
In brackets after ≈: the same amount, converted by molar mass. Where two headings read alike, the source gives them in different places.

Assays:
C. albicans GDH2346 = assay: Candida IC50, vegetative cells, by OD600 and fluorescence; format: cell-based; conditions: Candida albicans, GDH2346; vegetative cells; read-out: CA (Candida IC50)
Experimental: (§1) Candida IC50s were determined by OD600 and fluorescence from vegetative cells and by MTS viability assay in the hyphal state. MICs were determined using a broth microdilution assay under standard CLSI conditions Bacteria strains: E. coli 25922 (EC), S. aureus 27660 (SA), E. faecalis 29212 (EF), P. aeruginosa 10145 (PA), and K. pneumoniae 13883 (KP). Cytotoxicity (EC50) was determined against mouse 3T3 fibroblasts, human transformed liver HepG2 cells, and human oral keratinocyte cell line, OKF6/TERT using an MTS viability assay. Candida IC50s<10 μg/mL, MICs<5 μg/mL and cytotoxicity EC50s>100 μM are indicated in green. MICs>5 μg/mL and cytotoxicity EC50s<100 μM are indicated in red. Candida IC50s (CA) were determined by OD600 and fluorescence from vegetative cells. MICs were determined using a broth microdilution assay under standard CLSI conditions Bacteria strains: E. coli 25922 (EC), S. aureus 27660 (SA), E. faecalis 29212 (EF), P. aeruginosa 10145 (PA), and K. pneumoniae 13883 (KP). Cytotoxicity (EC50) was determined against mouse 3T3 fibroblasts and human transformed liver HepG2 cells using an MTS viability assay. For determination of anti-Candida IC50s, the method was modified by using RPMI/MOPS buffer pH 6.3 and by addition of FDGlu, a substrate for the yeast enzyme exoglucanase which is secreted during cell growth. This provides a fluorescent readout for cell growth which was used in addition to the traditional optical density measure of growth. OD600 and fluorescence were determined at 24 and 48 hours and the average of all 4 reads was used for the final IC50 determination.

E. coli 25922 = assay: Bacterial MIC, broth microdilution, CLSI; format: cell-based; conditions: Escherichia coli, 25922; read-out: EC (MIC)
Experimental: as §1, with “assay.” for “assay. For determination of anti-Candida IC50s, the method was modified by using RPMI/MOPS buffer pH 6.3 and by addition of FDGlu, a substrate for the yeast enzyme exoglucanase which is secreted during cell growth. This provides a fluorescent readout for cell growth which was used in addition to the traditional optical density measure of growth. OD600 and fluorescence were determined at 24 and 48 hours and the average of all 4 reads was used for the final IC50 determination.”

E. faecalis 29212 = assay: Bacterial MIC, broth microdilution, CLSI; format: cell-based; conditions: Enterococcus faecalis, 29212; read-out: EF (MIC)
Experimental: as §1, with “assay.” for “assay. For determination of anti-Candida IC50s, the method was modified by using RPMI/MOPS buffer pH 6.3 and by addition of FDGlu, a substrate for the yeast enzyme exoglucanase which is secreted during cell growth. This provides a fluorescent readout for cell growth which was used in addition to the traditional optical density measure of growth. OD600 and fluorescence were determined at 24 and 48 hours and the average of all 4 reads was used for the final IC50 determination.”

P. aeruginosa 10145 = assay: Bacterial MIC, broth microdilution, CLSI; format: cell-based; conditions: Pseudomonas aeruginosa, 10145; read-out: PA (MIC)
Experimental: as §1, with “assay.” for “assay. For determination of anti-Candida IC50s, the method was modified by using RPMI/MOPS buffer pH 6.3 and by addition of FDGlu, a substrate for the yeast enzyme exoglucanase which is secreted during cell growth. This provides a fluorescent readout for cell growth which was used in addition to the traditional optical density measure of growth. OD600 and fluorescence were determined at 24 and 48 hours and the average of all 4 reads was used for the final IC50 determination.”

S. aureus 27660 = assay: Bacterial MIC, broth microdilution, CLSI; format: cell-based; conditions: Staphylococcus aureus, 27660; read-out: SA (MIC)
Experimental: as §1, with “assay.” for “assay. For determination of anti-Candida IC50s, the method was modified by using RPMI/MOPS buffer pH 6.3 and by addition of FDGlu, a substrate for the yeast enzyme exoglucanase which is secreted during cell growth. This provides a fluorescent readout for cell growth which was used in addition to the traditional optical density measure of growth. OD600 and fluorescence were determined at 24 and 48 hours and the average of all 4 reads was used for the final IC50 determination.”

[1] = Cytotoxicity, MTS viability assay; format: cell-based, human
Experimental: Candida IC50s were determined by OD600 and fluorescence from vegetative cells and by MTS viability assay in the hyphal state. MICs were determined using a broth microdilution assay under standard CLSI conditions Bacteria strains: E. coli 25922 (EC), S. aureus 27660 (SA), E. faecalis 29212 (EF), P. aeruginosa 10145 (PA), and K. pneumoniae 13883 (KP). Cytotoxicity (EC50) was determined against mouse 3T3 fibroblasts, human transformed liver HepG2 cells, and human oral keratinocyte cell line, OKF6/TERT using an MTS viability assay. Candida IC50s<10 μg/mL, MICs<5 μg/mL and cytotoxicity EC50s>100 μM are indicated in green. MICs>5 μg/mL and cytotoxicity EC50s<100 μM are indicated in red.
Candida IC50s (CA) were determined by OD600 and fluorescence from vegetative cells. MICs were determined using a broth microdilution assay under standard CLSI conditions Bacteria strains: E. coli 25922 (EC), S. aureus 27660 (SA), E. faecalis 29212 (EF), P. aeruginosa 10145 (PA), and K. pneumoniae 13883 (KP). Cytotoxicity (EC50) was determined against mouse 3T3 fibroblasts and human transformed liver HepG2 cells using an MTS viability assay.
CLSI conditions Bacteria strains: clinical isolates; yeast strains: C. dubliniensis (NCPF3949), C. glabrata (ATCC 90030), C. krusei (ATCC 6258), C. parapsilosis (ATCC 22019), and C. tropicalis (ATCC 750). Cytotoxicity (EC50) was determined against mouse 3T3 fibroblasts, human transformed liver HepG2 cells, and human oral keratinocyte cell line, OKF6/TERT using an MTS viability assay.

[2] = human, HepG2 cells (transformed liver), read-out: HepG2 (cytotoxicity EC50)
[3] = mouse, 3T3 fibroblasts, read-out: 3T3 (cytotoxicity EC50)

SMILES | IC50 (C. albicans GDH2346) [µg/mL] | MIC (E. coli 25922) [µg/mL] | MIC (E. faecalis 29212) [µg/mL] | MIC (P. aeruginosa 10145) [µg/mL] | MIC (S. aureus 27660) [µg/mL] | EC50 [1, 2] [µM] | EC50 [1, 3] [µM]
NCc1cccc(-c2ccc3[nH]c4ccc(-c5cccc(CN)c5)cc4c3c2)c1 [Compound 117] | 3.1 (≈ 8.21 µM) | – | – | – | – | – | –
NCCCn1c2ccccc2c2ccccc21 [Compound 139] | > 100 | – | – | – | – | – | –
NCCCc1cccc(-c2ccc3c4ccc(-c5cccc(CCCN)c5)cc4n(CCN)c3c2)c1 [Compound 140] | 3.58 (≈ 7.51 µM) | 0.78 (≈ 1.64 µM) | 3.13 (≈ 6.57 µM) | 3.13 (≈ 6.57 µM) | 0.195 (≈ 0.409 µM) | 99 | 159
NCCCn1c2cc(Br)ccc2c2ccc(Br)cc21 [Compound 141] | – | 12.5 (≈ 32.7 µM) | – | 100 (≈ 262 µM) | 12.5 (≈ 32.7 µM) | 62 | 107
N=C(N)NCCCCCc1cccc(-c2ccc3c4ccc(-c5cccc(CCCNC(=N)N)c5)cc4n(CCCNC(=N)N)c3c2)c1 [Compound 142] | 1.65 (≈ 2.56 µM) | 3.13 (≈ 4.85 µM) | 6.25 (≈ 9.69 µM) | 25 (≈ 38.8 µM) | 1.56 (≈ 2.42 µM) | 100 | 131
NCCCOc1cc(OCCCN)cc(-c2ccc3c4ccc(-c5cc(OCCCN)cc(OCCCN)c5)cc4n(CCCN)c3c2)c1 [Compound 143] | 6.48 (≈ 9.69 µM) | 3.13 (≈ 4.68 µM) | 1.56 (≈ 2.33 µM) | 50 (≈ 74.8 µM) | 0.39 (≈ 0.583 µM) | 140 | 222
NCCCn1c2cc(-c3cccc(CCN)c3)ccc2c2ccc(-c3cccc(CCN)c3)cc21 [Compound 144] | 3.95 (≈ 8.54 µM) | 3.13 (≈ 6.77 µM) | 0.195 (≈ 0.421 µM) | 3.13 (≈ 6.77 µM) | 0.098 (≈ 0.212 µM) | 188 | 80
NCCCOc1cc(OCCCN)cc(-c2ccc3c(c2)c2ccccc2n3CCCN)c1 [Compound 145] | 23.9 (≈ 53.6 µM) | > 50 | 3.13 (≈ 7.01 µM) | 50 (≈ 112 µM) | 25 (≈ 56 µM) | 790 | > 1000
NCCCOc1cc(OCCCN)cc(-c2ccc3c4ccc(Br)cc4n(CCCN)c3c2)c1 [Compound 146] | 44.6 (≈ 84.9 µM) | 50 (≈ 95.1 µM) | 0.39 (≈ 0.742 µM) | 12.5 (≈ 23.8 µM) | 0.39 (≈ 0.742 µM) | 341 | 307
CCn1c2ccc(-c3cc(OCCCN)cc(OCCCN)c3)cc2c2cc(-c3cc(OCCCN)cc(OCCCN)c3)ccc21 [Compound 147] | – | 1.56 (≈ 2.44 µM) | 0.39 (≈ 0.61 µM) | 6.25 (≈ 9.77 µM) | 0.098 (≈ 0.153 µM) | – | –
CCn1c2ccc(-c3cc(C(=O)NCCN)cc(C(=O)NCCN)c3)cc2c2cc(-c3cc(C(=O)NCCN)cc(C(=O)NCCN)c3)ccc21 [Compound 148] | 8.74 (≈ 12.6 µM) | 25 (≈ 36.1 µM) | > 50 | > 50 | 3.13 (≈ 4.52 µM) | 312 | 450
